Source: patent publication US9572862B2, “Methods for promoting lipolysis and oxidation in liver and adipose tissue using catestatin” (The Regents of the University of California, priority 2012, dated 2017)
Entries after “also recorded” stand apart in the source; their conditions may differ. No end group written: not given here.

Key:
CST-KO mice [1] = assay: ITT in insulin resistant CST-KO mice with CST, RI-CST or NSC-177941; type: in vivo; details: ITT in CST-KO mice
Excerpt: FIG. 16. […] Figures in parentheses indicate number of animals.

CST-KO mice [2] = assay: CST supplementation in NCD-fed CST-KO mice; type: in vivo
Method: FIG. 13. Changes in biochemical and physiological parameters in NCD-fed CST-KO mice after CST (5 μg/g BW) supplementation. […] Figures in parentheses indicate number of animals.

Chga-KO mice = assay: Incorporation and oxidation of 14C-palmitate in vivo; details: for 14C-palmitate incorporation into lipids: CST 12 days
Method: FIG. 3. Effects of CST on lipogenesis from fatty acid and fatty acid oxidation in hepatic and adipose tissues. Incorporation of ^14C-palmitate into lipids in adipose (A) and liver (B) in Chga-KO mice after saline or CST treatment (5 μg/g BW, i.p./day) for 12 days. Partial oxidation to acid soluble metabolites (ASM) in adipose tissue (C) and liver (D). Complete oxidation to ^14CO2 in hepatocytes (HepG2) and adipocytes (3T3-L1) after saline or CST treatment (E).
Mice were injected with saline or CST (5 μg/g BW, i.p.; […]) for 12 days. One hr after the final injection, U-^14C-palmitate (5 μCi, 100 μl of 0.2 mM, i.p.) was injected and mice were sacrificed 3 hr later. Liver and adipose tissues (˜100 mg) were homogenized in 0.8 ml 3.5 N perchloric acid and extracted by vortexing in 3 ml of a mixture of methanol and chloroform (2:1, v/v). To the final homogenate, 1.2 ml of 3.5 N perchloric acid was added. The mixture was vortexed and centrifuged. The lower (chloroform) layer contained all the lipids derived from the incorporation of ^14C-palmitate, whereas the upper acidic layer contained partially oxidized acid-soluble metabolites (ASM) of ^14C-palmitate. The lower layer was further fractionated by thin layer chromatography on silica gel plates using hexane: diethyl ether: acetic acid (79:20:1, v/v/v) mixture as the developing solvent. Lipogenesis from palmitate was determined based on the radioactivity of the free palmitic acid band compared to other lipids (phospholipids, triglycerides, diacylglycerol, etc.) on the TLC plate. Complete oxidation of ^14C-palmitate was measured in cultured cells but not in mice.

[3] = CST-KO mice, CST 5 μg/g BW for 8 days

Sequence: SSMKLSFRARAYGFRGPGPQL [CST]
- persistence of the insulin-sensitizing effect (CST-KO mice [1]): persisted throughout the experimental period
- plasma NEFA (CST-KO mice [2]; [3]): reduced; also recorded: decreased
- plasma TG (CST-KO mice [2]; [3]): reduced; also recorded: decreased
- plasma catecholamine (CST-KO mice [2]; [3]): reduced; also recorded: normalized high plasma catecholamines
- plasma glycerol (CST-KO mice [2]; [3]): increase; also recorded: increased plasma glycerol
- plasma insulin (CST-KO mice [2]; [3]): reduced; also recorded: normalized the plasma insulin concentration to the WT level; also recorded: normalized hyperinsulinemia
- plasma leptin (CST-KO mice [2]; [3]): reduced; also recorded: normalized hyperleptinemia
- hypertensive phenotype (CST-KO mice [2]; CST-KO mice, CST supplementation): normalized
- glucose tolerance by IP-GTT (CST-KO mice [2]; NCD-fed CST-KO mice, CST 5 μg/g BW for 8 days): restored glucose tolerance; also recorded: improved glucose tolerance; also recorded: improved insulin resistance
- insulin sensitivity / glucose tolerance by IP-ITT (CST-KO mice [2]; NCD-fed CST-KO mice, CST supplementation): improved insulin sensitivity; also recorded: restored glucose tolerance; also recorded: improved insulin resistance
- palmitate oxidation into ASMs (Chga-KO mice; adipose tissue): stimulated
- 14C-palmitate incorporation into lipids (Chga-KO mice; adipose tissue): decreased
- palmitate oxidation into ASMs (Chga-KO mice; liver): stimulated
- 14C-palmitate incorporation into lipids (Chga-KO mice; liver): enhanced
